Test results published in patent US20260226020A1, “Nav 1.7 AND/OR Nav 1.8 BLOCKING HYDRAZIDES, PROCESSES FOR THE PREPARATION THEREOF, COMPOSITIONS, USES, METHODS OF TREATMENT USING SAME AND KITS” (Eurofarma Laboratórios S.A., priority 2023, published 2026).

Columns and labels:
[1] = molecular target: T1, human sodium channels Nav 1.7 (Homo sapiens, UniProt Q15858); assay: Automated whole-cell voltage-clamp (ScreenPatch 384P) sodium current block in CHO cells expressing Nav 1.7; type: cell-based; details: CHO cells stably expressing human Nav 1.7; whole cell patch clamp, inactivation step -40 mV 8 s, test step 0 mV (TP1A), room temperature; mean where tested in two or more assays; read-out: Nav1.7 IC50
T1 construct: expressed in transfected cells
Method: (§1) Biological assays were performed on Chinese hamster ovary (CHO) cells that express human sodium channels Nav 1.8 or Nav 1.7 in a stable manner.
(§2) The experimental protocol voltage-clamp using the whole cell configuration was established on the automated ScreenPatch© 384P platform (SP384PE, Nanion Technologies, Livingston, NJ) and the results were recorded with a Nanion 384-well Patch Clamp chip (NPC) (Nanion Technologies, Livingston, NJ).
(§3) Formula I compounds were diluted in eight concentrations in the extracellular solution composed of saline saline solution, buffered with HEPES (mM): NaCl, 137; KCl, 4; CaCl2, 3.8; MgCl2, 1; HEPES, 10; Glucose, 10; pH 7.4. The […], 50; CsF, 90; MgCl2, 5; EGTA, 5; HEPES, 10; pH 7.2. The duration of exposure of each compound with cells expressing Nav 1.7 or Nav 1.8 was at least five minutes, and the assays were performed at room temperature.
(§4) The measurements of the sodium currents of Nav 1.8 and Nav 1.7 were obtained using the voltage protocol described below.
(§5) A holding voltage of −100 mV was established followed by an inactivation voltage step at −40 mV for 8 seconds, followed by a step of −100 mV for 20 ms, followed by a 20 ms step for 10 mV for Nav 1.8 or 0 mV for Nav 1.7 (TP1A) before returning to the holding voltage of −100 mV.
(§6) The protocol was repeated at a frequency of 0.05 Hz and the amplitude of the current was quantified throughout the recording of the TP1A phase. The variation in the amplitude of the peak current was evaluated according to the formula described below, after exposing the cells expressing the channels to each concentration of the different compounds:
(§7) wherein ITP1A,basal and ITP1A,molecule represent the peaks of sodium current input into TP1A before exposure to the compound and in the presence of the compound, respectively.
(§8) The decrease in the amplitude of the peak current, after the exposure of the cells to the compounds, was used to calculate the percentage of relative blockage of the channels in relation to the positive control according to the formula below: […]
(§9) wherein % V and % CP represent the means of the values of current inhibition with a vehicle (DMSO) and positive controls, respectively. The sodium currents of the positive control were considered as 100%.
(§10) wherein [Test] represents the concentration of the molecule evaluated, CI50 is the concentration of the compound that generates half of the maximum inhibition, N is the Hill coefficient, and % Block′ is the percentage of sodium channel current (Nav 1.8 and Nav 1.7) blocked at each concentration of the molecule evaluated. Data were obtained by nonlinear regression (nonlinear least squares) with XLfit for Excel (Microsoft, Redmond, WA).
(§11) The compounds were tested in at least one assay to obtain the value of CI50. For compounds that were tested in two or more assays, the results are described as the means of the CI50 values.

[2] = molecular target: T2, human sodium channels Nav 1.8 (Homo sapiens, UniProt Q9Y5Y9); assay: Automated whole-cell voltage-clamp (ScreenPatch 384P) sodium current block in CHO cells expressing Nav 1.8; type: cell-based; details: CHO cells stably expressing human Nav 1.8; whole cell patch clamp, inactivation step -40 mV 8 s, test step 10 mV (TP1A), room temperature; mean where tested in two or more assays; read-out: Nav1.8 IC50
T2 construct: expressed in transfected cells
Method: as §1, §2, §3, §4, §5, §6, §7, §8, §9, §10, §11

T1 sequence (Q15858 whole entry): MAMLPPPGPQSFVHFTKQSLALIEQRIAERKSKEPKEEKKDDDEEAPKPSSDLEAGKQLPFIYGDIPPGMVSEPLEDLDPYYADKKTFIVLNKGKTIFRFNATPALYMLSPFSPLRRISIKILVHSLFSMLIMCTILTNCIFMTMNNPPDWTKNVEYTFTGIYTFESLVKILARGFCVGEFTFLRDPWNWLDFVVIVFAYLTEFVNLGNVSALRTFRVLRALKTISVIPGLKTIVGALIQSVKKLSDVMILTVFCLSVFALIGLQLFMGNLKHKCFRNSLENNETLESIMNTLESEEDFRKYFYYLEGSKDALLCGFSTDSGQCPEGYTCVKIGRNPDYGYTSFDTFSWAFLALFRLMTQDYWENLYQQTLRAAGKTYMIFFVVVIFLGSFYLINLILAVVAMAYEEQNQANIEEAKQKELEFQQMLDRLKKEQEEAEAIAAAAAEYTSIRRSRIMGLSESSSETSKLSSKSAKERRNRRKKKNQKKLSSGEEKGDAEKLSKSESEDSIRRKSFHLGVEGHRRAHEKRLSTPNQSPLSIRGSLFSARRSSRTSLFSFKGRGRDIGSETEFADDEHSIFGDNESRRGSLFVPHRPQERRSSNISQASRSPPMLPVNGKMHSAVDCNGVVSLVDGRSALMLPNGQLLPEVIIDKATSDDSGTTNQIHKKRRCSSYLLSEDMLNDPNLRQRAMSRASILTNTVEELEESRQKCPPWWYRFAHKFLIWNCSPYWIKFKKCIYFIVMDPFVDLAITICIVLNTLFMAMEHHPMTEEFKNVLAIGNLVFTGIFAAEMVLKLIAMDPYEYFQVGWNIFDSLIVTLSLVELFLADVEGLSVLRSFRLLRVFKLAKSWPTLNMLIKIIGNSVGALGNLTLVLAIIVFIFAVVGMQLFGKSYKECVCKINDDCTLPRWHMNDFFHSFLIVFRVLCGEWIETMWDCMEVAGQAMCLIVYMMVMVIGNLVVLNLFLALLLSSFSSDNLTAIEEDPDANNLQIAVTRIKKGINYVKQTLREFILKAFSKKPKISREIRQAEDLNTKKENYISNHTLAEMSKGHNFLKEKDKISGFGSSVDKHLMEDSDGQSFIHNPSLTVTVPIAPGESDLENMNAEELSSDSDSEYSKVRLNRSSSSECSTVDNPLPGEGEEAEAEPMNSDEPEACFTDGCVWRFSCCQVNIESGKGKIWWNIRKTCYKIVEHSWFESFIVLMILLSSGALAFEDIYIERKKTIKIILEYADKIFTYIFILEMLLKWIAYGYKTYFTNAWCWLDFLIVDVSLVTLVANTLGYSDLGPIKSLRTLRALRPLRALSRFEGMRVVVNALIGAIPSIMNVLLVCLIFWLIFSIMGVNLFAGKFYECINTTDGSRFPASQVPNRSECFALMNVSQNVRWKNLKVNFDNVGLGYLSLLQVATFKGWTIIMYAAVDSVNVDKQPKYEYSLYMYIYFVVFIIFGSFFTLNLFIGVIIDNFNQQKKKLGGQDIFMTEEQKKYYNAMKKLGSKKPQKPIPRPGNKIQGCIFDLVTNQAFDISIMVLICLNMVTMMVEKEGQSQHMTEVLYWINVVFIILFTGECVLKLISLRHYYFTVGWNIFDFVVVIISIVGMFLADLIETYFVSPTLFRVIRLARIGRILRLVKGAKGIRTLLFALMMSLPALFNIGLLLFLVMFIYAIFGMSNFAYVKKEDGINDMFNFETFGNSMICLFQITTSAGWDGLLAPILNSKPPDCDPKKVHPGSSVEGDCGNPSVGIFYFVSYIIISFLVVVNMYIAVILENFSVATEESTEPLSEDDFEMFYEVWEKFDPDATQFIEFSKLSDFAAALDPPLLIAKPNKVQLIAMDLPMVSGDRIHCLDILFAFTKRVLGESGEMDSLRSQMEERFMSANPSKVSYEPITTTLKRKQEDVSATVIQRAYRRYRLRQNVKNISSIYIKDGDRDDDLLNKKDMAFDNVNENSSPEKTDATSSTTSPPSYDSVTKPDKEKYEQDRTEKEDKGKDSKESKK
T2 sequence (Q9Y5Y9 whole entry): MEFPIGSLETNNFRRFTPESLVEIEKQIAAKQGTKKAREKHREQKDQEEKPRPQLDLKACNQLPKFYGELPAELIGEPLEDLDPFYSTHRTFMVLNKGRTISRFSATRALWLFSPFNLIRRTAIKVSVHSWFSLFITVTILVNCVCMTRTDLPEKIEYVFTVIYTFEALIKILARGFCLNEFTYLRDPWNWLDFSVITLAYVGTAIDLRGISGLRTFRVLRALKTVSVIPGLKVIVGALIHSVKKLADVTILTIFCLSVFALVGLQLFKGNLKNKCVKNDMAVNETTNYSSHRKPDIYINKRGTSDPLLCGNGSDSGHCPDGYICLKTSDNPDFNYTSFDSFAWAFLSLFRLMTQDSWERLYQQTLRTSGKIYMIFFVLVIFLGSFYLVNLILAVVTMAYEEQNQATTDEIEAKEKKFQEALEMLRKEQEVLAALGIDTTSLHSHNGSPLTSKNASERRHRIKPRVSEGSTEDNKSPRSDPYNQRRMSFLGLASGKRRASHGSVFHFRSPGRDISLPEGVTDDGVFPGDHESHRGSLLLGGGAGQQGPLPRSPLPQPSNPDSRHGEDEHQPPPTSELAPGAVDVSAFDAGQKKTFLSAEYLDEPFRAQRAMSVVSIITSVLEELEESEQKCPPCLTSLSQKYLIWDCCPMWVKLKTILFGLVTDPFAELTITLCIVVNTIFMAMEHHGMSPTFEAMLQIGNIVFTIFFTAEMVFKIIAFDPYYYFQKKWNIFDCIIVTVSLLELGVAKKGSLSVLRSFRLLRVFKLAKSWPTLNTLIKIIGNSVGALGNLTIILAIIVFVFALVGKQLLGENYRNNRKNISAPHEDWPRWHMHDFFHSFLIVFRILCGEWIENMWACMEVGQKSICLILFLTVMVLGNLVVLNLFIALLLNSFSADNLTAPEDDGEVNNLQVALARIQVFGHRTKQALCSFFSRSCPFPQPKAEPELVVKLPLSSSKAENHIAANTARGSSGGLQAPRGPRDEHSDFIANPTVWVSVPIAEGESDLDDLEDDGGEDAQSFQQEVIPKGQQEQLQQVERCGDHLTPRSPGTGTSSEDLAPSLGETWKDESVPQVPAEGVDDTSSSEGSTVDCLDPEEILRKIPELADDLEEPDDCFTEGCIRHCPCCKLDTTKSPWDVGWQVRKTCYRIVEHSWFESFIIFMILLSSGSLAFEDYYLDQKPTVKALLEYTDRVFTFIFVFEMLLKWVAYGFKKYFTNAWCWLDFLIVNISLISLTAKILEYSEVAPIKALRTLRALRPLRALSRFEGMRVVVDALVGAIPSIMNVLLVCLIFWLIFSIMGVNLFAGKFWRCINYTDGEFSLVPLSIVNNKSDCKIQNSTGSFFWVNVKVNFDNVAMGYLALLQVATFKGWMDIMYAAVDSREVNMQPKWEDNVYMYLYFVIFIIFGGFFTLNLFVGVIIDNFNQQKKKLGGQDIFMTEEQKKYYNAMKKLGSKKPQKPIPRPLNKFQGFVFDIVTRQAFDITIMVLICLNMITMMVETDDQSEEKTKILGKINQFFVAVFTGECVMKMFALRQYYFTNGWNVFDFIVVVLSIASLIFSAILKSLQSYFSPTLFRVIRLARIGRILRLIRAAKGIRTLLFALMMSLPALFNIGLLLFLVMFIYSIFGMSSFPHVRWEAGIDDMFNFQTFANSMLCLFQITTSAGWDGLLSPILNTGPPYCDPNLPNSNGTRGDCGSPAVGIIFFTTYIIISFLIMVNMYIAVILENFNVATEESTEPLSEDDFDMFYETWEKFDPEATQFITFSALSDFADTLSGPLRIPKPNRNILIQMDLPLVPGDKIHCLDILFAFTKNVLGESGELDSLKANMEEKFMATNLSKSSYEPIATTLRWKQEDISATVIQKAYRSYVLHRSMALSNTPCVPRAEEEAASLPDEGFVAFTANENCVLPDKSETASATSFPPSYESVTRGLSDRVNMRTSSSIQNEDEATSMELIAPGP

IC50 [1] [µM]	IC50 [2] [µM]	Compound
> 1	0.5 to 1	CCOc1ccc(-c2cncc(C(=O)NNCc3cc(OC)cnc3F)n2)cc1 [Compound 26, 6-(4-ethoxyphenyl)-N′-((2-fluoro-5-methoxypyridin-3-yl)methyl)pyrazine-2-carbohydrazide]
> 1	> 1	CCOc1ccc(-c2cncc(C(=O)NN3CCCc4ccc(OC)cc4C3)n2)cc1 [Compound 11, 6-(4-ethoxyphenyl)-N-(8-methoxy-1,3,4,5-tetrahydro-2H-benzo[c]azepin-2-yl)pyrazine-2-carboxamide]
> 1	0.5 to 1	COc1cc(CNNC(=O)c2cncc(-c3ccc(OC(F)F)cc3)n2)cc(OC)c1 [Compound 7, 6-(4-(difluoromethoxy)phenyl)-N′-(3,5-dimethoxybenzyl)pyrazine-2-carbohydrazide]
> 1	0.5 to 1	CCOc1ccc(-c2cncc(C(=O)NN[C@H](C)c3cc(OC)cc(OC)c3)n2)cc1 (single isomer, unassigned) [Compound 25]
> 1	< 0.5	CCOc1ccc(-c2cncc(C(=O)NNCc3cccc(OC)c3)n2)cc1 [Compound 16, 6-(4-ethoxyphenyl)-N′-(3-methoxybenzyl)pyrazine-2-carbohydrazide]
> 1	0.5 to 1	COc1ccc(-c2cncc(C(=O)NNCc3cc(OC)cc(OC)c3)n2)cc1 [Compound 1, N′-(3,5-dimethoxybenzyl)-6-(4-methoxyphenyl)pyrazine-2-carbohydrazide]
> 1	> 1	O=C(NNCc1ccc(Cl)cc1)c1cncc(-c2ccc(OC3CC3)cc2)n1 [Compound 4, N′-(4-chlorobenzyl)-6-(4-cyclopropoxyphenyl)pyrazine-2-carbohydrazide]
> 1	< 0.5	CCOc1ccc(-c2cncc(C(=O)NNCc3ccccc3F)n2)cn1 [Compound 39, 6-(6-ethoxypyridin-3-yl)-N′-(2-fluorobenzyl)pyrazine-2-carbohydrazide]
> 1	> 1	CCOc1cc(C)c(-c2cncc(C(=O)NNCc3cc(OC)cc(OC)c3)n2)cn1 [Compound 40, N′-(3,5-dimethoxybenzyl)-6-(6-ethoxy-4-methylpyridin-3-yl)pyrazine-2-carbohydrazide]
> 1	> 1	CCOc1ccc(-c2ccnc(C(=O)NNCc3ccccc3F)c2)cc1 [Compound 48, 4-(4-ethoxyphenyl)-N′-(2-fluorobenzyl)picolinohydrazide]
> 1	0.5 to 1	CCOc1ccc(-c2cncc(C(=O)NNCc3cc(OC)cc(OC)c3)n2)c(C)n1 [Compound 41, N′-(3,5-dimethoxybenzyl)-6-(6-ethoxy-2-methylpyridin-3-yl)pyrazine-2-carbohydrazide]
> 1	< 0.5	CCOc1ccc(-c2cncc(C(=O)NNCc3ccccc3F)c2)cc1 [Compound 49, 5-(4-ethoxyphenyl)-N′-(2-fluorobenzyl)nicotinohydrazide]
> 1	< 0.5	CCOc1ccc(-c2cncc(C(=O)NN3Cc4ccc(OC)cc4C3)n2)cc1 [Compound 13, 6-(4-ethoxyphenyl)-N-(5-methoxyisoindolin-2-yl)pyrazine-2-carboxamide]
0.5 to 1	< 0.5	CCOc1ccc(-c2cncc(C(=O)NNCc3cc(OC)cc(OC)c3)n2)cc1 [Compound 10, N′-(3,5-dimethoxybenzyl)-6-(4-ethoxyphenyl)pyrazine-2-carbohydrazide]
> 1	< 0.5	CCOc1ccc(-c2cncc(C(=O)NNCc3cc(OC)ccc3C)n2)cc1 [Compound 14, 6-(4-ethoxyphenyl)-N′-(5-methoxy-2-methylbenzyl)pyrazine-2-carbohydrazide]
> 1	< 0.5	COc1cc(CNNC(=O)c2cncc(-c3ccc(OC(C)C)cc3)n2)cc(OC)c1 [Compound 3, N′-(3,5-dimethoxybenzyl)-6-(4-isopropoxyphenyl)pyrazine-2-carbohydrazide]
> 1	< 0.5	CCOc1ccc(-c2cncc(C(=O)NNCc3cc(OC)ccc3C)n2)cn1 [Compound 33, 6-(6-ethoxypyridin-3-yl)-N′-(5-methoxy-2-methylbenzyl)pyrazine-2-carbohydrazide]
> 1	< 0.5	CCOc1ccc(-c2cncc(C(=O)NNCc3cc(OC)cnc3C)n2)cc1 [Compound 18, 6-(4-ethoxyphenyl)-N′-((5-methoxy-2-methylpyridin-3-yl)methyl)pyrazine-2-carbohydrazide]
> 1	< 0.5	CCOc1ccc(-c2cncc(C(=O)NNCc3cc(OC)cc(OC)c3)n2)c(C)c1 [Compound 28, N′-(3,5-dimethoxybenzyl)-6-(4-ethoxy-2-methylphenyl)pyrazine-2-carbohydrazide]
> 1	< 0.5	CCOc1ccc(-c2cncc(C(=O)NNCc3cc(OC)cc(OC)c3)n2)c(F)c1 [Compound 27, N′-(3,5-dimethoxybenzyl)-6-(4-ethoxy-2-fluorophenyl)pyrazine-2-carbohydrazide]
> 1	> 1	CCOc1ccc(-c2cncc(C(=O)NNCc3ccc(Cl)cc3)n2)cc1 [Compound 9, N′-(4-chlorobenzyl)-6-(4-ethoxyphenyl)pyrazine-2-carbohydrazide]
> 1	> 1	CCOc1ccc(-c2cncc(C(=O)NN3CCOc4ccc(OC)cc4C3)n2)cc1 [Compound 12, 6-(4-ethoxyphenyl)-N-(7-methoxy-2,3-dihydrobenzo[f][1,4]oxazepine-4(5H)-yl)pyrazine-2-carboxamide]
> 1	> 1	CCOc1ccc(-c2cncc(C(=O)NN[C@@H](C)c3cc(OC)cc(OC)c3)n2)cc1 (single isomer, unassigned) [Compound 24]
> 1	< 0.5	CCOc1ccc(-c2cncc(C(=O)NN3CCc4ccc(OC)cc4C3)n2)cc1 [Compound 45, 6-(4-ethoxyphenyl)-N-(7-methoxy-3,4-dihydroisoquinoline-2(1H)-yl)pyrazine-2-carboxamide]
> 1	> 1	O=C(NN1CCc2cc(Cl)ccc2C1)c1cncc(-c2ccc(Cl)cc2)n1 [Compound 6, N-(6-chloro-3,4-dihydroisoquinoline-2 (1H)-yl)-6-(4-chlorophenyl)pyrazine-2-carboxamide]
> 1	< 0.5	CCOc1ccc(-c2cncc(C(=O)NNCc3cc(OC)ccc3F)n2)cc1 [Compound 15, 6-(4-ethoxyphenyl)-N′-(2-fluoro-5-methoxybenzyl)pyrazine-2-carbohydrazide]
> 1	0.5 to 1	COc1cc(CNNC(=O)c2cncc(-c3ccc(OC4CC4)nc3)n2)cc(OC)c1 [Compound 42, 6-(6-cyclopropoxypyridin-3-yl)-N′-(3,5-dimethoxybenzyl)pyrazine-2-carbohydrazide]
> 1	< 0.5	COc1cc(CNNC(=O)c2cncc(-c3ccc(OC(F)F)nc3)n2)cc(OC)c1 [Compound 8, 6-(6-(difluoromethoxy)pyridin-3-yl)-N′-(3,5-dimethoxybenzyl)pyrazine-2-carbohydrazide]
> 1	< 0.5	CCOc1ccc(-c2cncc(C(=O)NNCc3ccccc3F)n2)cc1 [Compound 22, 6-(4-ethoxyphenyl)-N′-(2-fluorobenzyl)pyrazine-2-carbohydrazide]
